Laboratory results reported in patent US6399580B1, “Methods and compositions for stimulating tissue growth and epithelial moisturization” (The Regents of the University of California, priority 1994, dated 2002).

What was measured:
[1] = tested on: cultured human keratinocytes; test: [3H]-thymidine incorporation and DNA content in cultured human keratinocytes; format: cell-based; conditions: 24 hours, FIG. 12
Experimental: To determine the ability of exogenous glucosylceramides (GlcCER) to stimulate epidermal proliferation, we applied various concentrations of GlcCER to cultural human keratinocytes (third passage). Keratinocytes were isolated from human neonatal foreskins by a modification of the method of Pittelkow, M. R. and Scott, R. E. ( (1986) Proc. Mayo Clin. 61:771-777) Cells were added to 100 mm plastic Petri dishes at a density of 1 to 2×10^4 cells/cm^2, and grown initially in 10mls of Keratinocyte Growth Medium (KGM) (Clonetics, San Diego, Calif.) with 0.07 mM calcium. The cultures were maintained at 35° C. under 5% CO2 in air, with medium changes performed three times weekly. After the cells reached 70%-80% confluence, they were switched to KGM medium containing 1.2 mM calcium, and harvested at one week post-confluence. GlcCER was added for the last 24 hours of culture and ^3H-thymidine (1 μCi/ml) was added one-to-three hours prior to harvesting of cells for measurement of DNA synthesis and DNA content. (Proksch, E., et al., J. Clin. Invest. 87:1668-1673 (1991).
Using the method described in Example 5, incorporation of [^3H]-thymidine and total DNA content were measured in cultured human keratinocytes (CHK) grown in serum-free keratinocyte growth medium (KGM) supplemented with 0.07 mM .calcium. Cultured cell were further supplemented as indicated, with ceramide (Cer; 5 or 10 μM), glucosylceramide (GlcCER; 1.25 or 2.5 μM), or a combination of ceramide and glucosylceramide (10 and 1.25 μM, respectively).
CHK cells were grown in serum-free KGM supplemented both with 0.07 mM calcium and 10 μM ceramide (CER). Increasing concentrations of glucosylceramide were added (2.5 to 10 μM), and both [^3H]-thymidine (1 μCi/ml) and [^14C]-leucine (1 μCi/ml) incorporation assays were performed.
CHK cells were grown (as in Example 6)in serum-free KGM (0.07 mM calcium) and supplemented with increasing concentrations of ceramide (CER) alone (dark bars), glucosylceramide (GlcCer) alone (back row), or the combination of ceramide (10 μM) with increasing glucosylceramide (front row). […] Glucosylceramide alone again stimulated thymidine incorporation (>20%) at low concentrations (1.25 and 2.5 μM).
CHK cells were grown (as in Example 6) in serum-free KGM ([…]) supplemented with glucosylceramide (GlcCER) alone, or in combination with the β-glucocerebrosidase-inhibitor, CBE (3 or 10 μM) (FIG. 12). Incorporation of [^3H]-thymidine was measured at 24 hours following supplementation, and values are reported as percent of unsupplemented controls (mean ±S.D.; n>6). […] A low CBE concentration (3 μM) was ineffective.

[2] = tested on: murine epidermis; test: Epidermal DNA synthesis, [3H]-thymidine incorporation in vivo; design: species or system mouse
Experimental: To assess the effects of a topical β-glucocerebrosidase inhibitor, conduritol-B-epoxide (CBE) in epidermal DNA synthesis two slightly different dosage protocols have been employed. In all cases, mice were treated topically with 20 μl to 40 μl of 250 nmol/μl CBE bid for 2-5 days on the right flank. On the last day, the mice were injected intraperitoneally with ^3H-thymidine (1 μCi/G body weight) diluted 1:10 in 100-200 μl isotonic NaCl. After one hour the mice were sacrificed. Whole skin was excised and subcutaneous fascia and fat were removed by scraped. Skin samples were placed dermis side downward onto 10 mM EDTA in phosphate buffered saline (PBS-CMF; pH 7.4) and incubated at 37° C. for 40 min. The skin was blotted dry with a tissue and epidermis removed by scraping with a surgical blade. The epidermis was minced into small pieces and placed in microcentrifuge vials. Samples were immediately snap frozen and stored in liquid nitrogen until immediately prior to preparation of the epidermal homogenates. 300 μl of 10 mM EDTA in PBS-CMF (pH 7.4) was added to all samples which then underwent tissue homogenization using Polytron (15 sec, ×2 on ice. Polytron tip was rinsed between each homogenization with 400 μl 10 mM EDTA in PBS-CMF. Rinses were combined with same original samples. Samples were sonicated twice for 10 sec on ice. 100 μl of 20% TCA was added and left for 10 min at 4° C. Samples were centrifuged at 2000×g at 4° C. for 5 min. The supernatant was discarded. 500 μl of 5% TCA was added and the samples were centrifuged at 2000×g at 4° C. for 5 min. The supernatant was discarded and this step was repeated again. The precipitate was resuspended in 1ml of 1N NaOH and vortexed. 400 μl or NaOH plus 400 μl of 1N HCl with 8ml Ecolume was used as a background blank. Vials were counted the following day.
We next determined whether the topical administration of structurally similar but less efficient β-glucosidase inhibitors would induce epidermal hyperproliferation. Animals were treated topically twice daily with either Conduritol-B-epoxide, Conduritol B (CB), or deoxynojirimycin (dNJM), each at 40 μl of 250 nmol/μl twice daily, as described in Example 10. After 24 hours, [^3H]-thymidine was injected intraperitoneally and incorporation of thymidine into DNA was determined (FIG. 26 A&B). […] This reduced activity is a result of the relative availability of these inhibitors to in vivo tissues.
Animals were treated as described in Example 10.
We next determined whether occlusion with a vapor-impermeable membrane would enhance the effects of a β-glucocerebrosidase inhibitor on epidermal DNA synthesis. […] After 24 hrs animals were injected with [^3H]-thymidine, and incorporation into DNA was determined (Proksch, et. al., J. Clin. Invest. 87:1668-1673, 1991).

O[C@H]1[C@H](O)[C@@H](O)[C@@H]2O[C@@H]2[C@@H]1O (racemic) [CBE, conduritol-B-epoxide]
inhibition of thymidine incorporation caused by higher glucosylceramide concentrations ([1]; CBE 3 μM with GlcCER): ineffective | inhibition of thymidine incorporation caused by higher glucosylceramide concentrations ([1]; CBE 10 μM with GlcCER): blocked the inhibition | DNA synthesis, CBE, GlcCER and occlusion ([2]; latex wrap, 24 hrs): increased DNA synthesis | epidermal DNA synthesis ([3H]-thymidine incorporation) ([2]; topical 40 μl of 250 nmol/μl twice daily, after 24 hours): potent stimulation | DNA synthesis rates, CBE+occlusion vs CBE alone ([2]; water-vapor impermeable latex wrap, 24 hrs, 4 separate studies): equivalent or higher
